The target in one assay is T1, PI3K delta (Homo sapiens, UniProt O00329).
T1 construct: for the full-length p110-d subunit are generated and fused by overlapping PCR; His tag (C); made in house; host or cells: baculovirus; Tn5 (Trichoplusia ni) or TiniPro insect cells
The experiment in a line: Enzymatic PI3K delta isoform inhibition (lipid kinase activity, Kinase-Glo). The conditions noted are these: enzymatic assay. It is filed as biochemical. The method, then:
(§1) In a more preferred assay, the kinase reaction is performed in a final volume of 10 μl per well of a low volume non-binding CORNING, 384 well black plate (Cat. No. #3676). The final concentrations of ATP and phosphatidyl inositol (PI) in the assay are 1 μM and 10 μg/mL, respectively. The reaction is started by the addition of ATP.
(§2) The components of the assay are added per well as follows:
(§3) 50 nl test compounds in 90% DMSO per well, in columns 1-20, 8 concentrations (1/3 and 1/3.33 serial dilution step) in single. • Low control: 50 nl of 90% DMSO in half the wells of columns 23-24 (0.45% in final). • High control: 50 nl of reference compound (e.g. compound of Example 7 in WO 2006/122806) in the other half of columns 23-24 (2.5 μM in final). • Standard: 50 nl of reference compound as just mentioned diluted as the test compounds in columns 21-22. • 20 mL ‘buffer’ are prepared per assay: • 200 μl of 1M TRIS HCl pH7.5 (10 mM in final) • 60 μl of 1M MgCl2 (3 mM in final) • 500 μl of 2M NaCl (50 mM in final) • 100 μl of 10% CHAPS (0.05% in final) • 200 μl of 100 mM DTT (1 mM in final) • 18.94 mL of nanopure water • 10 mL ‘PI’ are prepared per assay: • 200 μl of 1 mg/mL 1-alpha-Phosphatidylinositol (Liver Bovine, Avanti Polar Lipids Cat. No. 840042C MW=909.12) prepared in 3% OctylGlucoside (10 μg/mL in final) • 9.8 mL of ‘buffer’ • 10 mL ‘ATP’ are prepared per assay: • 6.7 μl of 3 mM stock of ATP giving a final concentration of 1 μM per well • 10 mL of ‘buffer’ • 2.5 mL of each PI3K construct are prepared per assay in ‘PI’ with the following final concentration: • 10 nM PI3K alfa EMV B1075 • 25 nM beta EMV BV949 • 10 nM delta EMV BV1060 • 150 nM gamma EMV BV950 • 5 μl of ‘PI/PI3K’ are added per well. • 5 μl ‘ATP’ are added per well to start the reaction. • The plates are then incubated at room temperature for 60 minutes (alfa, beta, delta) or 120 minutes (gamma). • The reaction is terminated by the addition of 10 μl Kinase-Glo (Promega Cat. No. #6714). • The assay plates are read after 10 minutes in Synergy 2 reader (BioTek, Vermont USA) with an integration time of 100 milliseconds and sensitivity set to 191. • Output: The High control is around 60'000 counts and the Low control is 30'000 or lower • This luminescence assay gives a useful Z′ ratio between 0.4 and 0.7
(§4) IC50 is determined by a four parameter curve fitting routine that comes along with “excel fit”. A four parameter logistic equation is used to calculate IC50 values (IDBS XLfit) of the percentage inhibition of each compound at 8 concentrations (usually 10, 3.0, 1.0, 0.3, 0.1, 0.030, 0.010 and 0.003 μM). Alternatively, IC50 values are calculated using idbsXLfit model 204, which is a 4 parameter logistic model.
(§5) Yet alternatively, for an ATP depletion assay, compounds of the formula I to be tested are dissolved in DMSO and directly distributed into a white 384-well plate at 0.5 μl per well. To start the reaction, 10 μl of 10 nM PI3 kinase and 5 μg/mL 1-alpha-phosphatidylinositol (PI) are added into each well followed by 10 μl of 2 μM ATP. The reaction is performed until approx 50% of the ATP is depleted, and then stopped by the addition of 20 μl of Kinase-Glo solution (Promega Corp., Madison, Wis., USA). The stopped reaction is incubated for 5 minutes and the remaining ATP is then detected via luminescence. IC50 values are then determined.
(In Kinase-Glo more light means more ATP remaining.)

Another assay addresses T2, PI3K alpha (Homo sapiens, UniProt P42336).
T2 construct: His tag (C); made in house; host or cells: baculovirus; Tn5 (Trichoplusia ni) or TiniPro insect cells
Put plainly: Enzymatic PI3K alpha isoform inhibition (lipid kinase activity, Kinase-Glo). In kind it is biochemical. The following applies: enzymatic assay. As to the method:
The kinase reaction is performed in a final volume of 50 μl per well of a half area COSTAR, 96 well plate. The final concentrations of ATP and phosphatidyl inositol in the assay are 5 μM and 6 μg/mL, respectively. The reaction is started by the addition of PI3 kinase, e.g. PI3 kinase δ.
as §1, §2, §3, §4, §5

Structures are written as SMILES.

T1 sequence (O00329 with tags, fused parts or gaps limits assumed): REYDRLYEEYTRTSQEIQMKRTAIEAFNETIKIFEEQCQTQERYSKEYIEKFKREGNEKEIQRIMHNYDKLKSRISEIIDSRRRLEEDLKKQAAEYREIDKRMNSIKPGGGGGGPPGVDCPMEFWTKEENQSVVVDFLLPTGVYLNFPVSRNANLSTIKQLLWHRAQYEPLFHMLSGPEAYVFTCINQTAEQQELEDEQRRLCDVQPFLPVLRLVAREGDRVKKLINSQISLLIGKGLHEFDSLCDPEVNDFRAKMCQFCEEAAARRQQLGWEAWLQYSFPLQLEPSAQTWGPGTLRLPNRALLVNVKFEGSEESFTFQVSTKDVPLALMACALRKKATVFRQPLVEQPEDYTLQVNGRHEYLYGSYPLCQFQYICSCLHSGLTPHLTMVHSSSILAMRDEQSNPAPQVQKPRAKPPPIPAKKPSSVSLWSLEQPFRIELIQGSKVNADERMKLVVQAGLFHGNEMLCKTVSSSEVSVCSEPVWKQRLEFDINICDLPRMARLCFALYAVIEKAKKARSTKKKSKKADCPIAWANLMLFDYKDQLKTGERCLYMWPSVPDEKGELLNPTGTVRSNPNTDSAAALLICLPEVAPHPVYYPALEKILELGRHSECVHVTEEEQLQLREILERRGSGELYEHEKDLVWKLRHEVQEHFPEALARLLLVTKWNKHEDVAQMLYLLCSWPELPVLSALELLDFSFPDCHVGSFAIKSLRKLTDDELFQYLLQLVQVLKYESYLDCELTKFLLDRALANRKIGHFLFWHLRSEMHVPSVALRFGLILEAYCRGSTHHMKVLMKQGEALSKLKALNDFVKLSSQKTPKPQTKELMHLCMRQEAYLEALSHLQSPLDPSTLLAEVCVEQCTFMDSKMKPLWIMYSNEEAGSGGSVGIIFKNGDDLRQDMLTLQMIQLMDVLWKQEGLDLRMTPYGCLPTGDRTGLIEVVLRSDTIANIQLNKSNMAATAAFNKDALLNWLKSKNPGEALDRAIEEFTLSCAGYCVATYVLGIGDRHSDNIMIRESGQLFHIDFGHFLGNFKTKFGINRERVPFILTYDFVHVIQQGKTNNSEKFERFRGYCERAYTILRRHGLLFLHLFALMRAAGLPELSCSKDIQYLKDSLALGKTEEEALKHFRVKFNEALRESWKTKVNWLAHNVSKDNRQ
T2 sequence (P42336 with tags, fused parts or gaps limits assumed): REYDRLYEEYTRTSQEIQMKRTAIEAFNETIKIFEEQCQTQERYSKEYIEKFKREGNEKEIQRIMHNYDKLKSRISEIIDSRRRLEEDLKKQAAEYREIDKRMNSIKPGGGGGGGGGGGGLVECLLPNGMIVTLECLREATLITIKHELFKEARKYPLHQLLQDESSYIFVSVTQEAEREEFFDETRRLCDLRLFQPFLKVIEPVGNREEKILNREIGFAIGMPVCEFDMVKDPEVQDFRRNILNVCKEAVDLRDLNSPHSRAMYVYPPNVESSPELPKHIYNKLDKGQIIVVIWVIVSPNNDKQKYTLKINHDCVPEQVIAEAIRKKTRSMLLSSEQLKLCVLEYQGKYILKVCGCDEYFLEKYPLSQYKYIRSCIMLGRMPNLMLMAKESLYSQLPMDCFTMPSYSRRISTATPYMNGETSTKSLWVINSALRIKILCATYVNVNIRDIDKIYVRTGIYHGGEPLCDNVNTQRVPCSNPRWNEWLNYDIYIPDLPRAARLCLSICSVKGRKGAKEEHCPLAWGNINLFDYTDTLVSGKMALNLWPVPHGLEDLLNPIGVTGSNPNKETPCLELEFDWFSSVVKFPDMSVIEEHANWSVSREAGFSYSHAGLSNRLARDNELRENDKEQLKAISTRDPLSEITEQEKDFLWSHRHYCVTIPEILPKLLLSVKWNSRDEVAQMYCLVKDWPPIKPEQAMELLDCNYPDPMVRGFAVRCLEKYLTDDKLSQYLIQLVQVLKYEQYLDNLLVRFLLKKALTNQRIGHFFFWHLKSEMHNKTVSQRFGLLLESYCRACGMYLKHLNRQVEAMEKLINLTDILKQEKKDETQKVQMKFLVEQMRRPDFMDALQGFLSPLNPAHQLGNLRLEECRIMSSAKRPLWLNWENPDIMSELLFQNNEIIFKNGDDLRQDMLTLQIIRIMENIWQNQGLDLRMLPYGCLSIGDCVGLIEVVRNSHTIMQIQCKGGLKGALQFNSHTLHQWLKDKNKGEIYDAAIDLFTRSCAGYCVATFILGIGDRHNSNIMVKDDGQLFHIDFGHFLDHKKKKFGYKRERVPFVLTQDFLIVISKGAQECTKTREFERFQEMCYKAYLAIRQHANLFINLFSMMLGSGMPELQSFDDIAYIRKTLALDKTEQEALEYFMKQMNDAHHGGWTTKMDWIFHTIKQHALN

What is called IC50 is the concentration at which inhibition is half-maximal. As to `Cc1cc(-c2ccnc3ccc(O[C@H]4CCN(C(=O)C5CCS(=O)(=O)CC5)C4)cc23)cnc1S(C)(=O)=O` [Example A23, (1,1-Dioxo-hexahydro-1lambda*6*-thiopyran-4-yl)-{(S)-3-[4-(6-methanesulfonyl-5-methyl-pyridin-3-yl)-quinolin-6-yloxy]-pyrrolidin-1-yl}-methanone], the figures for the IC50 on PI3K delta and on PI3K alpha were 0.01 µM and 1.14 µM, respectively.
In the same order, the values of `COc1ncc(-c2ccnc3ccc(O[C@H]4CCN(C(=O)c5cn(C)cn5)C4)cc23)cc1C(F)(F)F` [Example A26, {(S)-3-[4-(6-Methoxy-5-trifluoromethyl-pyridin-3-yl)-quinolin-6-yloxy]-pyrrolidin-1-yl}-(1-methyl-1H-imidazol-4-yl)-methanone] are 0.013 µM and 0.121 µM.
For `COc1ncc(-c2ccnc3ccc(O[C@H]4CCN(C(=O)C5CCN(C(C)=O)CC5)C4)cc23)cc1C` [Example A27, 1-(4-{(S)-3-[4-(6-Methoxy-5-methyl-pyridin-3-yl)-quinolin-6-yloxy]-pyrrolidine-1-carbonyl}-piperidin-1-yl)-ethanone], the IC50 at PI3K delta was found to be 0.014 µM; at PI3K alpha, 0.543 µM.
For `CS(=O)(=O)c1ncc(-c2ccnc3ccc(O[C@H]4CCN(C(=O)C5CCOCC5)C4)cc23)cc1Cl` [Example A28, {(S)-3-[4-(5-Chloro-6-methanesulfonyl-pyridin-3-yl)-quinolin-6-yloxy]-pyrrolidin-1-yl}-(tetrahydro-pyran-4-yl)-methanone] the same measures were 0.014 µM and 1.39 µM.
For the compound `Nc1ncc(-c2ccnc3ccc(O[C@H]4CCN(C(=O)C5CCOCC5)C4)cc23)cc1C(F)(F)F` [Example A29, {(S)-3-[4-(6-Amino-5-trifluoromethyl-pyridin-3-yl)-quinolin-6-yloxy]-pyrrolidin-1-yl}-(tetrahydro-pyran-4-yl)-methanone], the IC50 at PI3K delta stood at 0.017 µM; at PI3K alpha, 0.03 µM.
With `COc1ncc(-c2ccnc3ccc(O[C@H]4CCN(C(=O)c5cn(C)cn5)C4)cc23)cc1C#N` [Example A30, 2-Methoxy-5-{6-[(S)-1-(1-methyl-1H-imidazole-4-carbonyl)-pyrrolidin-3-yloxy]-quinolin-4-yl}-nicotinonitrile], the results for the IC50 on PI3K delta and on PI3K alpha were 0.0195 µM and 0.381 µM, respectively.
In the same order, the values of `Nc1ncc(-c2ccnc3ccc(O[C@H]4CCN(C(=O)C5CCS(=O)(=O)CC5)C4)cc23)cc1C(F)(F)F` [Example A31, {(S)-3-[4-(6-Amino-5-trifluoromethyl-pyridin-3-yl)-quinolin-6-yloxy]-pyrrolidin-1-yl}-(1,1-dioxo-hexahydro-1lambda*6*-thiopyran-4-yl)-methanone] are 0.02 µM and 0.03 µM.
For `COc1ncc(-c2ccnc3ccc(O[C@H]4CCN(C(=O)c5ccc(=O)n(C)c5)C4)cc23)cc1C` [Example A32, 5-{(S)-3-[4-(6-Methoxy-5-methyl-pyridin-3-yl)-quinolin-6-yloxy]-pyrrolidine-1-carbonyl}-1-methyl-1H-pyridin-2-one], the concentration for half-maximal inhibition (IC50) at PI3K delta turned out to be 0.021 µM; on PI3K alpha, 0.851 µM.
Turning to `Cc1cc(-c2ccnc3ccc(O[C@H]4CCN(C(=O)C5CCOCC5)C4)cc23)cnc1S(C)(=O)=O` [Example A33, {(S)-3-[4-(6-Methanesulfonyl-5-methyl-pyridin-3-yl)-quinolin-6-yloxy]-pyrrolidin-1-yl}-(tetrahydro-pyran-4-yl)-methanone], the half-maximal inhibitory concentration (IC50) amounted to 0.025 µM on PI3K delta and 3.37 µM on PI3K alpha.
In the same order, the values of `CCC(=O)N1CC[C@H](Oc2ccc3nccc(-c4cnc(N)c(C(F)(F)F)c4)c3c2)C1` [Example A34, 1-{(S)-3-[4-(6-Amino-5-trifluoromethyl-pyridin-3-yl)-quinolin-6-yloxy]-pyrrolidin-1-yl}-propan-1-one] are 0.027 µM and 0.035 µM.

These data come from US20150148377A1, “Quinoline Derivatives” (NOVARTIS AG, priority 2011, published 2015).
